Paper PMC10810011 (Expert opinion on drug delivery, 2023)
pIC50: −log10 of the molar value.

What was measured:
beta1 adrenergic = beta1 adrenergic (Homo sapiens, UniProt P08588); assay: InVEST radioligand filter binding, beta1 adrenergic; conditions: M13 20 μM, 100 = no effect
HCT-116 cells = assay: MTT cytotoxicity, 2D HCT-116; assay type: cell-based, human; conditions: 24 h
5-HT2B = 5-HT2B (Homo sapiens, UniProt P41595); assay: InVEST radioligand filter binding, 5-HT2B; conditions: M13 20 μM, 100 = no effect
Opioid delta = Opioid delta (Homo sapiens, UniProt P41143); conditions: M13 20 μM, 100 = no effect
5-HT3 = target: T1, 5-HT3 (Homo sapiens, UniProt P46098); assay: InVEST radioligand filter binding, ion channel 5-HT3; conditions: M13 20 μM, 100 = no effect
T1 sequence (P46098 24-478): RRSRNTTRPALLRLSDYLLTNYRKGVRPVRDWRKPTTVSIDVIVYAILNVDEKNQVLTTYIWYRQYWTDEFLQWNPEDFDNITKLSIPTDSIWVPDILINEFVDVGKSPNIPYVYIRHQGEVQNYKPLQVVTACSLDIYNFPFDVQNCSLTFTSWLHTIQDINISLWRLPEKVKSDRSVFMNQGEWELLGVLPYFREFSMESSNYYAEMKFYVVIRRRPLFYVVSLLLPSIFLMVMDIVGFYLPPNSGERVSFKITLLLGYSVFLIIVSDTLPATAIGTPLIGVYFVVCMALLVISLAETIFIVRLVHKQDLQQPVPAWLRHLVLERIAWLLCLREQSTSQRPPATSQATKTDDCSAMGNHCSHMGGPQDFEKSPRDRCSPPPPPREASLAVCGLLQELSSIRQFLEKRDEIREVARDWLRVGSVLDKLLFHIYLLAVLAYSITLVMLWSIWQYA

[1] = Metabolic stability with mouse intestinal microsomes; conditions: 30 min incubation, HPLC
[2] = test system: Salmonella typhimurium TA98; assay: Ames test, strain TA98; conditions: +S9 or -S9
PDE3A = PDE3A (Homo sapiens, UniProt Q14432); assay: InVEST enzymatic activity, PDE3A; assay type: biochemical; conditions: M13 20 μM, 100 = no effect
Muscarinic M2 = target: T2, Muscarinic M2 (Homo sapiens, UniProt P08172); assay: InVEST radioligand filter binding, Muscarinic M2; conditions: M13 20 μM, 100 = no effect
T2 sequence (P08172 1-466): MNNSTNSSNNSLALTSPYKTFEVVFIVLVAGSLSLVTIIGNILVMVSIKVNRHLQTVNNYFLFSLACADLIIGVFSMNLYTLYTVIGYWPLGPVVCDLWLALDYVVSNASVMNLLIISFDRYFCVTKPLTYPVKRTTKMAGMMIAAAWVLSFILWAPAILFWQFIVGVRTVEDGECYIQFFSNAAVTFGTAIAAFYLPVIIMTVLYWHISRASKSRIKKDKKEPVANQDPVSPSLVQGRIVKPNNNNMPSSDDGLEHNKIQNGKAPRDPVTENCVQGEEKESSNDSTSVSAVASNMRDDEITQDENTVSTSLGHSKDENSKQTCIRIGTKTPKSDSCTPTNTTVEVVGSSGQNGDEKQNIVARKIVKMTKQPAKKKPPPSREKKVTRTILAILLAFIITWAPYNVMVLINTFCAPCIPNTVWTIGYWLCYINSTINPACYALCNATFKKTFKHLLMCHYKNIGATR

AOM/DSS-induced CAC mice = assay: AOM/DSS-induced CAC mouse model; assay type: in vivo; conditions: oral 5 mg/kg every 2 days, day 60
D3 dopamine = D3 dopamine (Homo sapiens, UniProt P35462); assay: InVEST radioligand filter binding, D3 dopamine; conditions: M13 20 μM, 100 = no effect
A2A adenosine = A2A adenosine (Homo sapiens, UniProt P29274); conditions: M13 20 μM, 100 = no effect
D1 dopamine = D1 dopamine (Homo sapiens, UniProt P21728); conditions: M13 20 μM, 100 = no effect
CCK = target: T3, CCK (Homo sapiens, UniProt P32238); assay: InVEST radioligand filter binding, CCK; conditions: CCK, M13 20 μM, 100 = no effect
T3 sequence (P32238 1-428): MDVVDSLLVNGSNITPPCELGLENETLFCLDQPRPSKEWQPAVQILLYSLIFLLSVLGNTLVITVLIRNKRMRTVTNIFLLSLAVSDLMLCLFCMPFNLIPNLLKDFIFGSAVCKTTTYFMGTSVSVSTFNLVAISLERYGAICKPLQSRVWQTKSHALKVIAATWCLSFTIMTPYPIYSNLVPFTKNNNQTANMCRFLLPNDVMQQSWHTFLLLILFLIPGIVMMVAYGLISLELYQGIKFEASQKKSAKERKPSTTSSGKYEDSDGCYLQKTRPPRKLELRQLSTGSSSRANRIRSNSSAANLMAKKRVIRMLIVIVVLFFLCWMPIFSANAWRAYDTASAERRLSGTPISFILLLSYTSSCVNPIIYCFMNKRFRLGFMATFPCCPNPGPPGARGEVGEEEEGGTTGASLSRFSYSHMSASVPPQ

Chain of A2A adenosine (P29274 whole entry): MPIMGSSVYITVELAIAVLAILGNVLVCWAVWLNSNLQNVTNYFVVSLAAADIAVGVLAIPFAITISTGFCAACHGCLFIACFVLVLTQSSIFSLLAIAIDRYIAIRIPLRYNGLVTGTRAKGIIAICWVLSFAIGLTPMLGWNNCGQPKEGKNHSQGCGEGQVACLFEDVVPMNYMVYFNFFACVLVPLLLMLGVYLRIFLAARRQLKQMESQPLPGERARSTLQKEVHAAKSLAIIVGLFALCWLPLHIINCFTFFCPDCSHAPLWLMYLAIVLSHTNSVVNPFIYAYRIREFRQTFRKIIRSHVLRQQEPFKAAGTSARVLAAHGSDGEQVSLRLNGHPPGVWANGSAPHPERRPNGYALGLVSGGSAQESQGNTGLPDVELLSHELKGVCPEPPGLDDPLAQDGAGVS
Chain of D1 dopamine (P21728 whole entry): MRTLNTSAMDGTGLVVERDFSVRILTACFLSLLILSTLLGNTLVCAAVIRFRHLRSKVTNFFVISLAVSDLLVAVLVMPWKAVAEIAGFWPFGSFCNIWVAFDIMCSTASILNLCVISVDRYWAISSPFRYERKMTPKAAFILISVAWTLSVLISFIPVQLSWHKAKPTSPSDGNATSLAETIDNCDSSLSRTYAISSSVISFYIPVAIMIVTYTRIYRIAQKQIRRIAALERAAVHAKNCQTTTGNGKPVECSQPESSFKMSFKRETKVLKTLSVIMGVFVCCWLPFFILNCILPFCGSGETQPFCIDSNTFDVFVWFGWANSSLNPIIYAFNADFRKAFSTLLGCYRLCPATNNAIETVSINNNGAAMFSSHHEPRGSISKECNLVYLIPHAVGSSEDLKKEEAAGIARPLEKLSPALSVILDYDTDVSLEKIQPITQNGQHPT
Chain of beta1 adrenergic (P08588 whole entry): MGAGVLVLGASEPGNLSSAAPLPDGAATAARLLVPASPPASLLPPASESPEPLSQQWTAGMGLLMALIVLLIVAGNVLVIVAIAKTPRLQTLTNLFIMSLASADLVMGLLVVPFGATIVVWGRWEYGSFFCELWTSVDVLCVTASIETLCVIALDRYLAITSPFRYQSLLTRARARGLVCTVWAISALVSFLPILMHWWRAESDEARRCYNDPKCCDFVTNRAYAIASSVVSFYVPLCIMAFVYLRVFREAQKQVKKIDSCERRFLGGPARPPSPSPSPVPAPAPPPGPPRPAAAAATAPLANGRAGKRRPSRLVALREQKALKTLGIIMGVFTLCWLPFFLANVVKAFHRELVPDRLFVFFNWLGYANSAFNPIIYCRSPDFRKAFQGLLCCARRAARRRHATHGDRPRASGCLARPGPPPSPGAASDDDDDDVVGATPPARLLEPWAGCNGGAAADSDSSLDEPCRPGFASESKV
Chain of Opioid delta (P41143 whole entry): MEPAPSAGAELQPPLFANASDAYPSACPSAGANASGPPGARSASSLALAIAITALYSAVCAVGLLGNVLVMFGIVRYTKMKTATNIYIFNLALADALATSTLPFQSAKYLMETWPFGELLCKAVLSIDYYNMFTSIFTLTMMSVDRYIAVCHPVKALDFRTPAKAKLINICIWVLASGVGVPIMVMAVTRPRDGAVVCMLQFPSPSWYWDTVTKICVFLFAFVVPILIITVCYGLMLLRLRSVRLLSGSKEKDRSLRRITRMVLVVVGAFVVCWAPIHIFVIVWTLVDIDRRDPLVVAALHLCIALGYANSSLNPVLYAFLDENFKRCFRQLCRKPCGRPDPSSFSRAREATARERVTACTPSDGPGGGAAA
Chain of 5-HT2B (P41595 whole entry): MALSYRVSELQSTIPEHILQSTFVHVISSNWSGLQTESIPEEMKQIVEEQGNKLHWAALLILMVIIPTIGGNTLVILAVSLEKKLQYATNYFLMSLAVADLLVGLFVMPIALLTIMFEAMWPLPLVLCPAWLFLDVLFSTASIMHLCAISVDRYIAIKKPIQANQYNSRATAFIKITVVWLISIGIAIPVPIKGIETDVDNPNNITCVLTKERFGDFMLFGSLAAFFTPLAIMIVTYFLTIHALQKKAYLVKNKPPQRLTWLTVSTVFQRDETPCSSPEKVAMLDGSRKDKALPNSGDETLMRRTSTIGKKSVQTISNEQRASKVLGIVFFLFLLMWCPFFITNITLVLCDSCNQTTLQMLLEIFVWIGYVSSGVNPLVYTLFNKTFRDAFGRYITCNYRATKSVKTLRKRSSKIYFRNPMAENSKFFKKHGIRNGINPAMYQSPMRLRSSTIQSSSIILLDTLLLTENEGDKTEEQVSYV
Chain of PDE3A (Q14432 whole entry): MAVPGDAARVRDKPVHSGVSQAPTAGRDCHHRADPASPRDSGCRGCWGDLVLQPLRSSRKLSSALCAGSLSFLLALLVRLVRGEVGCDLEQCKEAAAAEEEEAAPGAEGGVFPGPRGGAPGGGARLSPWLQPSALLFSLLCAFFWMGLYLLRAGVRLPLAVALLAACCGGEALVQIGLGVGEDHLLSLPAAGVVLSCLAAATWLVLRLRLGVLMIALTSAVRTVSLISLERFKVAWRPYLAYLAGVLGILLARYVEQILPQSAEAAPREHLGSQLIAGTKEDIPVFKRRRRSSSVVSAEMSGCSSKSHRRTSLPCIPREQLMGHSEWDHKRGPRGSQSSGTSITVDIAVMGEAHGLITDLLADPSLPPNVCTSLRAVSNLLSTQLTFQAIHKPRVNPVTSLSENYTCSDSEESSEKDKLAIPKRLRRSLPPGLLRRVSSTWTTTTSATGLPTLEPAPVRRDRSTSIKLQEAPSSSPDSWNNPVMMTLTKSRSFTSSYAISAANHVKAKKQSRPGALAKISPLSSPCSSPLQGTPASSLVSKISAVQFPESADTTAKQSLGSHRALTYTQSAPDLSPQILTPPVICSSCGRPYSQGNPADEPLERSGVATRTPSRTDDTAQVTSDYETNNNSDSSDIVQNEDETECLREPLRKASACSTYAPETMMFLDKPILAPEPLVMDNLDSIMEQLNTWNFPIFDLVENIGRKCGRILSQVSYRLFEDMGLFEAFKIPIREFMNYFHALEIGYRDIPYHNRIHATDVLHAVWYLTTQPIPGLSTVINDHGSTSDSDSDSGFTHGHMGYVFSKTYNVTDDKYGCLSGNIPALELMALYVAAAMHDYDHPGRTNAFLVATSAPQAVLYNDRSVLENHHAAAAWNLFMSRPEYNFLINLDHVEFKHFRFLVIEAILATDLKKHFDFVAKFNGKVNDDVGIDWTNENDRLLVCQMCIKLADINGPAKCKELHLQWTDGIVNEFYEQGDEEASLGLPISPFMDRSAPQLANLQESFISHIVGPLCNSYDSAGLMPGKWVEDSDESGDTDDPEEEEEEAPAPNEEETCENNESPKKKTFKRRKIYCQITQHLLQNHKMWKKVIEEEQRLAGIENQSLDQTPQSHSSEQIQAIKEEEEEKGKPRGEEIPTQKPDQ
Chain of D3 dopamine (P35462 whole entry): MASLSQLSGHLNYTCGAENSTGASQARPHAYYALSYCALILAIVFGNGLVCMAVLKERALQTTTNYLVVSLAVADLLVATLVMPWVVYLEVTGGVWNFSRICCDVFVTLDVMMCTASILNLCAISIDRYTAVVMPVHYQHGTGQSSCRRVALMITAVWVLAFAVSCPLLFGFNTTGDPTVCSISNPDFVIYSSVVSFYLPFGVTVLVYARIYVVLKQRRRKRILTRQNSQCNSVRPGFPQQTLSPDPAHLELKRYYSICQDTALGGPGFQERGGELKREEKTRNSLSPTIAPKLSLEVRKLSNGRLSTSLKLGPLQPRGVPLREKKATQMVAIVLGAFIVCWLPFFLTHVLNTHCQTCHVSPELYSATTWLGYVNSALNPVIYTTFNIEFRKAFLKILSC

CCCCCC(CC(=O)CCc1ccc(O)c(OC)c1)SC[C@H](NC(=O)CC[C@H](N)C(=O)O)C(=O)NCC(=O)O (some centres unmarked) [M13, 5-glutathione-6-shogaol]
% Activity Data 1 (beta1 adrenergic; repetition 1): 120%
% Activity Data 2 (beta1 adrenergic; repetition 2): 116%
pIC50 (HCT-116 cells; HCT-116, MTT): 4.40
fold by which IC50 against HIEC-6 is higher than against HCT-116 (HCT-116 cells; MTT): 2.5 fold
% Activity Data 1 (5-HT2B; repetition 1): 109%
% Activity Data 2 (5-HT2B; repetition 2): 113%
% Activity Data 1 (Opioid delta; repetition 1): 98%
% Activity Data 2 (Opioid delta; repetition 2): 104%
% Activity Data 1 (5-HT3; repetition 1): 98%
% Activity Data 2 (5-HT3; repetition 2): 100%
% of the input retained after incubation with mouse intestinal microsomes [1]: 86%
number of revertant colonies ([2]; TA98, 156 ~ 5000 μg/plate): did not increase
mutation factor ([2]; TA98, all concentrations 156 ~ 5000 μg/plate): less than 1.6
% Activity Data 1 (PDE3A; repetition 1): 93%
% Activity Data 2 (PDE3A; repetition 2): 94%
% Activity Data 1 (Muscarinic M2; repetition 1): 93%
% Activity Data 2 (Muscarinic M2; repetition 2): 115%
number of tumors compared with the AOM/DSS group (AOM/DSS-induced CAC mice): failed to reduce
% Activity Data 1 (D3 dopamine; repetition 1): 96%
% Activity Data 2 (D3 dopamine; repetition 2): 100%
% Activity Data 1 (A2A adenosine; repetition 1): 99%
% Activity Data 2 (A2A adenosine; repetition 2): 100%
% Activity Data 1 (D1 dopamine; repetition 1): 100%
% Activity Data 2 (D1 dopamine; repetition 2): 116%
% Activity Data 1 (CCK; repetition 1): 94%
% Activity Data 2 (CCK; repetition 2): 92%
